Laboratory results: patent US20060282906A1, “Non-transgenic rodent model of Alzheimer's disease” (priority 2005, published 2006)
Where no end group is shown, it is not given here.

Tested on: Male Wistar rats
Experiment: Immunohistochemistry of rat brain sections, grading scale of staining size and intensity
Assay type: in vivo
Design: key to NKκB(p65) immunostaining signal / COX-2 immunostaining signal / GFAP immunostaining signal / OX-6 immunostaining signal / APP immunostaining signal / Tau-2 immunostaining signal / TNFα immunostaining signal / Cas-3 immunostaining signal: n.s.: no positive staining; +: moderate immunostaining signal; ++: strong immunostaining signal; +++: strongest immunostaining signal

## GSNKGAIIGLM [Aβ, β-amyloid fragment (25-35), 50 nmol injected bilaterally into the lateral ventricles of rats]
Corpus Callosum
  APP immunostaining signal: +
  COX-2 immunostaining signal: +
  GFAP immunostaining signal: +
  NKκB(p65) immunostaining signal: +
  OX-6 immunostaining signal: +
  TNFα immunostaining signal: +
  Tau-2 immunostaining signal: +
Cortex
  APP immunostaining signal: +
  COX-2 immunostaining signal: +
  GFAP immunostaining signal: +
  NKκB(p65) immunostaining signal: +
  OX-6 immunostaining signal: +
  TNFα immunostaining signal: +
  Tau-2 immunostaining signal: +
Hippocampus
  APP immunostaining signal: +
  COX-2 immunostaining signal: +
  GFAP immunostaining signal: +
  NKκB(p65) immunostaining signal: +
  OX-6 immunostaining signal: +
  Tau-2 immunostaining signal: +
Hypothalamus
  APP immunostaining signal: +
  NKκB(p65) immunostaining signal: +
  TNFα immunostaining signal: +
Striatum (right)
  APP immunostaining signal: n.s.
  COX-2 immunostaining signal: n.s.
  Cas-3 immunostaining signal: n.s.
  GFAP immunostaining signal: +
  NKκB(p65) immunostaining signal: n.s.
  OX-6 immunostaining signal: n.s.
  TNFα immunostaining signal: n.s.
Thalamus (right)
  OX-6 immunostaining signal: +
  TNFα immunostaining signal: +
